Data from patent US20070172957A1, “Methods of identifying anti-inflammatory macrolides” (TAISHO PHARMACEUTICAL CO., LTD., priority 2004, published 2007).

Tested on: genes predictive for the anti-inflammatory macrolide effect
Assay: Genes statistically predictive of Clari response: differentially expressed with Clari but not the inactive macrolides MAA or Josa (Appendix E)
Format: cell-based
Text: In the case of the above-mentioned (i) related to arachidonic acid biosynthesis, specifically, methods of the embodiment involve assaying whether a test macrolide alters biosynthesis of arachidonic acid, alters the expression or activities of enzymes involved in the biosynthesis or activation of arachidonic acid (e.g., arachidonic acid CoA synthetase, delta-6 desaturase, fatty acid elongase, and delta-5 desaturase, AA-related genes in Tables 2 and 3), or alters the expression of genes identified as predictive for the anti-inflammatory macrolide effect (Appendix E). Assays in which arachidonic acid or gene expression or enzymatic activity is detected can be carried out after contacting a cell with a test macrolide. Any cell line that secretes prostaglandin or produces arachidonic acid can be used. Epithelial and macrophages lines (e.g., A549 or THP-1) are suitable for this purpose; other cell lines can be identified by carrying out assays such as those described in the specific Examples, below. Alternatively, screening assays can be carried out after adding a test macrolide to an in vitro cell system (e.g., a cellular extract or liver microsome preparation) or an in vitro enzyme assay system.

In the case of CO[C@@H]1[C@@H](O[C@@H]2O[C@H](C)[C@@H](O[C@H]3C[C@@](C)(O)[C@@H](OC(=O)CC(C)C)[C@H](C)O3)[C@H](N(C)C)[C@H]2O)[C@@H](CC=O)C[C@@H](C)[C@@H](O)/C=C/C=C/C[C@@H](C)OC(=O)C[C@H]1OC(C)=O [josamycin], the “group mean, gene UNG” value (SpotID 48807, MAA and Josa vs. Clari) is reported as 1.03, the “group mean, gene TUBB” value (SpotID 48914, MAA and Josa vs. Clari) is reported as 0.96 and the “group mean, gene ITGAE” value (SpotID 48921, MAA and Josa vs. Clari) is reported as 0.85. The “mean group, ITGAE” value (SpotID 48921, pooled group mean) was 0.85, the “group mean, gene P4HA2” value (SpotID 48971, MAA and Josa vs. Clari) was 1.07 and the “group mean, gene FADS1” value (SpotID 48998, MAA and Josa vs. Clari) was 1.02. For the same compound, the “group mean, gene PRSS25” value (SpotID 49006, MAA and Josa vs. Clari) was 1.02, the “mean group, PRSS25” value (SpotID 49006, pooled group mean) was 1.02 and the “group mean, gene TM9SF2” value (SpotID 49007, MAA and Josa vs. Clari) was 1.08. The “mean group, TM9SF2” value (SpotID 49007, pooled group mean) was 1.08, the “group mean, gene BBC3” value (SpotID 49013, MAA and Josa vs. Clari) was 0.93 and the “group mean, gene BNIP3L” value (SpotID 49028, MAA and Josa vs. Clari) was 1.03. The “mean group, BNIP3L” value (SpotID 49028, pooled group mean) was 1.03, the “group mean, gene GSK3B” value (SpotID 49032, MAA and Josa vs. Clari) was 1.06 and the “group mean, gene GLUD1” value (SpotID 49047, MAA and Josa vs. Clari) was 1.05. For the same compound, the “group mean, gene SERPINB1” value (SpotID 49117, MAA and Josa vs. Clari) was 1.01, the “mean group, SERPINB1” value (SpotID 49117, pooled group mean) was 1.01 and the “group mean, gene PPIB” value (SpotID 49142, MAA and Josa vs. Clari) was 1.03. For the same compound, the “group mean, gene PIK3R3” value (SpotID 49144, MAA and Josa vs. Clari) was 1.01, the “group mean, gene ARTS-1” value (SpotID 49155, MAA and Josa vs. Clari) was 1.11 and the “mean group, ARTS-1” value (SpotID 49155, pooled group mean) was 1.11. The “group mean, gene LGALS3” value (SpotID 49163, MAA and Josa vs. Clari) was 1.06, the “group mean, gene RRS1” value (SpotID 49169, MAA and Josa vs. Clari) was 1.09 and the “mean group, RRS1” value (SpotID 49169, pooled group mean) was 1.09. The “group mean, gene YAF2” value (SpotID 49172, MAA and Josa vs. Clari) was 1.01, the “group mean, gene NEDD8” value (SpotID 49177, MAA and Josa vs. Clari) was 0.97 and the “group mean, gene SRRM1” value (SpotID 49183, MAA and Josa vs. Clari) was 0.96. For the same compound, the “group mean, gene FUCA1” value (SpotID 49197, MAA and Josa vs. Clari) was 0.98, the “group mean, gene APOE” value (SpotID 49233, MAA and Josa vs. Clari) was 0.96 and the “mean group, APOE” value (SpotID 49233, pooled group mean) was 0.96. The “mean group, TNFRSF10B” value (SpotID 49272, pooled group mean) was 0.97, the “group mean, gene PPIB” value (SpotID 49314, MAA and Josa vs. Clari) was 1.04 and the “mean group, PPIB” value (SpotID 49314, pooled group mean) was 1.04. The “group mean, gene YWHAH” value (SpotID 49318, MAA and Josa vs. Clari) was 1.08, the “mean group, YWHAH” value (SpotID 49318, pooled group mean) was 1.08 and the “group mean, gene HNRPA3” value (SpotID 49347, MAA and Josa vs. Clari) was 1.01. The “group mean, gene NCBP2” value (SpotID 49352, MAA and Josa vs. Clari) was 0.94, the “group mean, gene TEB4” value (SpotID 49360, MAA and Josa vs. Clari) was 1.10 and the “mean group, TEB4” value (SpotID 49360, pooled group mean) was 1.10. For the same compound, the “group mean, gene ABCE1” value (SpotID 49364, MAA and Josa vs. Clari) was 1.06, the “group mean, gene EIF3S9” value (SpotID 49373, MAA and Josa vs. Clari) was 1.06 and the “mean group, SpotID 49374” value (SpotID 49374 (gene symbol not given), pooled group mean) was 0.97. For the same compound, the “group mean, SpotID 49374 (gene symbol not given)” value (SpotID 49374, MAA and Josa vs. Clari) was 0.97, the “group mean, gene SLC35A2” value (SpotID 49380, MAA and Josa vs. Clari) was 0.99 and the “group mean, gene PPP3CB” value (SpotID 49391, MAA and Josa vs. Clari) was 1.02. For the same compound, the “group mean, gene TRRAP” value (SpotID 49435, MAA and Josa vs. Clari) was 1.07, the “mean group, TRRAP” value (SpotID 49435, pooled group mean) was 1.07 and the “group mean, gene SRC” value (SpotID 49446, MAA and Josa vs. Clari) was 1.00. The “mean group, SRC” value (SpotID 49446, pooled group mean) was 1.00, the “group mean, gene LOC55871” value (SpotID 49481, MAA and Josa vs. Clari) was 0.90 and the “group mean, gene VTN” value (SpotID 49490, MAA and Josa vs. Clari) was 1.12. For the same compound, the “mean group, VTN” value (SpotID 49490, pooled group mean) was 1.12, the “group mean, gene MATN2” value (SpotID 49511, MAA and Josa vs. Clari) was 0.93 and the “group mean, gene GC20” value (SpotID 49512, MAA and Josa vs. Clari) was 1.01. For the same compound, the “group mean, gene UBC” value (SpotID 49514, MAA and Josa vs. Clari) was 0.97, the “mean group, UBC” value (SpotID 49514, pooled group mean) was 0.97 and the “group mean, gene AP1G2” value (SpotID 49524, MAA and Josa vs. Clari) was 0.74. The “mean group, AP1G2” value (SpotID 49524, pooled group mean) was 0.74, the “group mean, gene GNPI” value (SpotID 49546, MAA and Josa vs. Clari) was 1.05 and the “mean group, LOC54543” value (SpotID 49577, pooled group mean) was 0.88. For the same compound, the “group mean, gene PSMC4” value (SpotID 49580, MAA and Josa vs. Clari) was 1.12, the “mean group, CSTF3” value (SpotID 49606, pooled group mean) was 0.98 and the “group mean, gene POU4F1” value (SpotID 49608, MAA and Josa vs. Clari) was 0.97. The “group mean, gene CLN2” value (SpotID 49618, MAA and Josa vs. Clari) was 1.03, the “mean group, CLN2” value (SpotID 49618, pooled group mean) was 1.03 and the “group mean, gene FGF2” value (SpotID 49649, MAA and Josa vs. Clari) was 1.12. For the same compound, the “group mean, gene MAP3K10” value (SpotID 49650, MAA and Josa vs. Clari) was 0.93, the “mean group, BTN3A2” value (SpotID 49673, pooled group mean) was 0.92 and the “mean group, SERPINF1” value (SpotID 49679, pooled group mean) was 0.98. For the same compound, the “group mean, gene GSK3B” value (SpotID 49688, MAA and Josa vs. Clari) was 1.05, the “group mean, gene CAT” value (SpotID 49698, MAA and Josa vs. Clari) was 0.92 and the “group mean, gene PCYT2” value (SpotID 49705, MAA and Josa vs. Clari) was 0.92. For the same compound, the “group mean, gene HNRPD” value (SpotID 49715, MAA and Josa vs. Clari) was 0.99, the “group mean, gene GSK3B” value (SpotID 49735, MAA and Josa vs. Clari) was 1.02 and the “group mean, gene CHAF1B” value (SpotID 49737, MAA and Josa vs. Clari) was 0.99. The “mean group, CHAF1B” value (SpotID 49737, pooled group mean) was 0.99, the “group mean, gene USF2” value (SpotID 49744, MAA and Josa vs. Clari) was 0.93 and the “group mean, gene RPLP0” value (SpotID 49747, MAA and Josa vs. Clari) was 0.91.
